Legend:
Assay in all cases: relative viability (nuclei count vs DMSO), 5 days (fraction); higher = more cells survive
Cediranib + Alpelisib = compound: COc1cc2c(Oc3ccc4[nH]c(C)cc4c3F)ncnc2cc1OCCCN1CCCC1 [Cediranib] + Cc1nc(NC(=O)N2CCC[C@H]2C(N)=O)sc1-c1ccnc(C(C)(C)C(F)(F)F)c1 [Alpelisib] (partner 2 µM)
Summary of the method: (§1)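 A single step with final 0.05% Triton X-100, 1% formaldehyde and 1 ug/ml Hoechst fixed the cells and stained nuclei 5 days after treatment. Lung cancer cell lines in 1536-well plates had been treated by pin tool the day after seeding with one drug alone or a fixed anchor-drug dose plus five library-drug doses (not always all listed) in √10 steps, and nuclei were counted on 4× images. Relative viability is the ratio of nuclei in treated wells to nuclei in vehicle wells, taken as the median of duplicate plates.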

[1] = compound: O=C(C[C@H]1NCCC[C@@H]1O)Cn1cnc2cc(Br)c(Cl)cc2c1=O (racemic) [Halofuginone] + CCNC(=O)c1noc(-c2cc(C(C)C)c(O)cc2O)c1-c1ccc(CN2CCOCC2)cc1 [Luminespib] (partner 0.01 µM)
Summary of the method: as §1

[2] = compound: O=C(C[C@H]1NCCC[C@@H]1O)Cn1cnc2cc(Br)c(Cl)cc2c1=O (racemic) [Halofuginone] + C[C@]1(O)C[C@@H](c2nc(-c3ccc4ccc(-c5ccccc5)nc4c3)c3c(N)nccn32)C1 [Linsitinib] (partner 1 µM)
Summary of the method: as §1

Halofuginone + AZD7762 = compound: O=C(C[C@H]1NCCC[C@@H]1O)Cn1cnc2cc(Br)c(Cl)cc2c1=O (racemic) [Halofuginone] + NC(=O)Nc1cc(-c2cccc(F)c2)sc1C(=O)N[C@H]1CCCNC1 [AZD7762] (partner 0.2 µM)
Summary of the method: as §1

| Cell Line | relative viability (Cediranib + Alpelisib; first compound 0.04 µM) | relative viability (Cediranib + Alpelisib; first compound 0.4 µM) | relative viability (Cediranib + Alpelisib; first compound 1.265 µM) | relative viability (Cediranib + Alpelisib; first compound 4 µM) | relative viability ([1]; first compound 0.001 µM) | relative viability ([1]; first compound 0.003162 µM) | relative viability ([1]; first compound 0.01 µM) | relative viability ([1]; first compound 0.03162 µM) | relative viability ([1]; first compound 0.1 µM) | relative viability ([2]; first compound 0.001 µM) | relative viability ([2]; first compound 0.003162 µM) | relative viability ([2]; first compound 0.01 µM) | relative viability ([2]; first compound 0.03162 µM) | relative viability ([2]; first compound 0.1 µM) | relative viability (Halofuginone + AZD7762; first compound 0.001 µM) | relative viability (Halofuginone + AZD7762; first compound 0.003162 µM) | relative viability (Halofuginone + AZD7762; first compound 0.01 µM) | relative viability (Halofuginone + AZD7762; first compound 0.03162 µM) | relative viability (Halofuginone + AZD7762; first compound 0.1 µM) | relative viability (Cediranib + Alpelisib; first compound 0.1265 µM) |
| --- | --- | --- | --- | --- | --- | --- | --- | --- | --- | --- | --- | --- | --- | --- | --- | --- | --- | --- | --- | --- |
| NCI-H520 | 1.05 | 0.838 | 0.795 | 0.846 | 0.232 | 0.241 | 0.185 | 0.206 | 0.236 | 0.997 | 0.85 | 0.994 | 0.667 | 0.422 |  |  |  |  |  |  |
| ChaGo-K-1 |  |  |  |  | 0.683 | 0.712 | 0.713 | 0.563 | 0.563 |  |  |  |  |  | 0.869 | 0.839 | 0.854 | 0.874 | 0.885 |  |
| SK-MES-1 | 0.835 | 0.8 | 0.924 | 1.02 | 0.842 | 0.704 | 0.756 | 0.284 | 0.164 | 1.14 | 1.05 | 1.01 | 0.812 | 0.552 |  |  |  |  |  | 0.916 |
| COR-L 105 |  | 0.862 | 1.14 | 1.1 | 0.668 | 0.606 | 0.694 | 0.639 | 0.532 | 1.13 | 0.932 | 0.764 | 0.748 | 0.753 |  |  |  |  |  | 1.14 |
| NCI-H1703 | 0.264 | 0.218 | 0.205 | 0.169 |  |  |  |  |  | 0.944 | 1.03 | 0.617 | 0.559 | 0.353 | 0.119 | 0.121 | 0.121 | 0.13 | 0.151 | 0.337 |

From the supplement of paper PMC10307832
